Source: patent US20100267561A1, “HERBICIDAL PYRIDAZINONE DERIVATIVES” (priority 2007, published 2010)

Columns and labels:
Assay in all cases: Test B pre-/postemergence plant response
Type in all cases: in vivo
[1] = tested on: blackgrass (Alopecurus myosuroides); details: for Blackgrass plant response rating: 8 g ai/ha
How it was run: (§1)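 Preemergence and postemergence (plants 2-18 cm, 1- to 4-leaf stage) applications used test chemicals in a non-phytotoxic solvent with surfactant. Plants were held in a greenhouse 13 to 15 days, then rated visually against controls on a 0-100 scale (0 no effect, 100 complete control).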

[2] = tested on: catchweed bedstraw (Galium aparine); details: Preemergence; 8 g ai/ha; scale 0 to 100
How it was run: as §1

[3] = tested on: common ragweed (Ambrosia elation)
How it was run: as §1

corn (Zea mays) = tested on: corn (Zea mays)
How it was run: as §1

[4] = tested on: downy bromegrass (Bromus tectorum); details: for Bromegrass, Downy plant response rating: 8 g ai/ha
How it was run: as §1

[5] = tested on: giant foxtail (Setaria faberii)
How it was run: as §1

[6] = tested on: goosegrass (Eleusine indica)
How it was run: as §1

[7] = tested on: green foxtail (Setaria viridis)
How it was run: as §1

[8] = tested on: lambsquarters (Chenopodium album)
How it was run: as §1

[9] = tested on: morningglory (Ipomoea coccinea)
How it was run: as §1

[10] = tested on: pigweed (Amaranthus retroflexus)
How it was run: as §1

[11] = tested on: surinam grass (Brachiaria decumbens)
How it was run: as §1

wild oat (Avena fatua) = tested on: wild oat (Avena fatua)
How it was run: as §1

[12] = tested on: woolly cupgrass (Eriochloa villosa)
How it was run: as §1

[13] = Postemergence, 16 g ai/ha, scale 0 to 100
[14] = Postemergence, 31 g ai/ha, scale 0 to 100
[15] = Postemergence, 62 g ai/ha, scale 0 to 100, 0 no effect, 100 complete control
[16] = Preemergence, 16 g ai/ha, scale 0 to 100 (0 no effect, 100 complete control)
[17] = Preemergence, 31 g ai/ha, 0 to 100 scale, 0 no effect, 100 complete control
[18] = Preemergence, 62 g ai/ha, scale 0 to 100
[19] = 8 g ai/ha, postemergence, 0-100 scale
[20] = Preemergence, 31 g ai/ha, scale 0 to 100 (0 no effect, 100 complete control)
[21] = Preemergence, 8 g ai/ha, scale 0 to 100
[22] = Preemergence, 16 g ai/ha, scale 0 to 100

CCOC(=O)Oc1cnn(C)c(=O)c1-n1nc(-c2ccc(Cl)cc2)cc1C [Compound 53]
Blackgrass plant response rating ([1]; postemergence, 0-100 scale): 30 | Plant response rating, Blackgrass [1, 13]: 60 | Plant response rating, Blackgrass [1, 14]: 95 | Plant response rating, Blackgrass [1, 15]: 95 | Plant response rating, Blackgrass [1, 16]: 100 | Plant response rating, Blackgrass [1, 17]: 100 | Plant response rating, Blackgrass [1, 18]: 100 | Blackgrass plant response rating ([1]; Preemergence, scale 0 to 100): 95 | Galium plant response rating [2]: 0 | Ragweed plant response rating [3, 19]: 0 | Plant response rating, Ragweed [3, 13]: 0 | Plant response rating, Ragweed [3, 14]: 0 | Plant response rating, Ragweed [3, 15]: 0 | Plant response rating, Ragweed [3, 20]: 0 | Plant response rating, Ragweed [3, 18]: 0 | Ragweed plant response rating [3, 21]: 0 | Ragweed plant response rating [3, 22]: 0 | Corn plant response rating (corn (Zea mays); [19]): 20 | Plant response rating, Corn (corn (Zea mays); [13]): 100 | Plant response rating, Corn (corn (Zea mays); [14]): 100 | Plant response rating, Corn (corn (Zea mays); [15]): 100 | Plant response rating, Corn (corn (Zea mays); [17]): 55 | Plant response rating, Corn (corn (Zea mays); [18]): 60 | Corn plant response rating (corn (Zea mays); [21]): 0 | Corn plant response rating (corn (Zea mays); [22]): 45 | Bromegrass, Downy plant response rating ([4]; postemergence, 0-100 scale): 10 | Plant response rating, Bromegrass, Downy [4, 13]: 45 | Plant response rating, Bromegrass, Downy [4, 14]: 60 | Plant response rating, Bromegrass, Downy [4, 15]: 90 | Plant response rating, Bromegrass, Downy [4, 16]: 50 | Plant response rating, Bromegrass, Downy [4, 17]: 70 | Plant response rating, Bromegrass, Downy [4, 18]: 90 | Bromegrass, Downy plant response rating ([4]; Preemergence, scale 0 to 100): 10 | Foxtail, Giant plant response rating [5, 19]: 85 | Plant response rating, Foxtail, Giant [5, 13]: 95 | Plant response rating, Foxtail, Giant [5, 14]: 100 | Plant response rating, Foxtail, Giant [5, 15]: 100 | Plant response rating, Foxtail, Giant [5, 17]: 45 | Plant response rating, Foxtail, Giant [5, 18]: 70 | Foxtail, Giant plant response rating [5, 21]: 0 | Foxtail, Giant plant response rating [5, 22]: 20 | Goosegrass plant response rating [6, 19]: 20 | Plant response rating, Goosegrass [6, 13]: 60 | Plant response rating, Goosegrass [6, 14]: 65 | Plant response rating, Goosegrass [6, 15]: 100 | Plant response rating, Goosegrass [6, 17]: 0 | Plant response rating, Goosegrass [6, 18]: 0 | Goosegrass plant response rating [6, 21]: 0 | Goosegrass plant response rating [6, 22]: 0 | Foxtail, Green plant response rating [7, 19]: 95 | Plant response rating, Foxtail, Green [7, 13]: 95 | Plant response rating, Foxtail, Green [7, 14]: 100 | Plant response rating, Foxtail, Green [7, 15]: 100 | Plant response rating, Foxtail, Green [7, 17]: 100 | Plant response rating, Foxtail, Green [7, 18]: 100 | Foxtail, Green plant response rating [7, 21]: 95 | Foxtail, Green plant response rating [7, 22]: 100 | Lambsquarters plant response rating [8, 19]: 0 | Plant response rating, Lambsquarters [8, 13]: 0 | Plant response rating, Lambsquarters [8, 14]: 0 | Plant response rating, Lambsquarters [8, 15]: 0 | Plant response rating, Lambsquarters [8, 17]: 0 | Plant response rating, Lambsquarters [8, 18]: 35 | Lambsquarters plant response rating [8, 21]: 0 | Lambsquarters plant response rating [8, 22]: 0 | Morningglory plant response rating [9, 19]: 0 | Plant response rating, Morningglory [9, 13]: 0 | Plant response rating, Morningglory [9, 14]: 0 | Plant response rating, Morningglory [9, 15]: 0 | Plant response rating, Morningglory [9, 20]: 0 | Plant response rating, Morningglory [9, 18]: 0 | Morningglory plant response rating [9, 21]: 0 | Morningglory plant response rating [9, 22]: 0 | Pigweed plant response rating [10, 19]: 0 | Plant response rating, Pigweed [10, 13]: 0 | Plant response rating, Pigweed [10, 14]: 0 | Plant response rating, Pigweed [10, 15]: 0 | Plant response rating, Pigweed [10, 20]: 0 | Plant response rating, Pigweed [10, 18]: 0 | Pigweed plant response rating [10, 21]: 0 | Pigweed plant response rating [10, 22]: 0 | Surinam Grass plant response rating [11, 19]: 75 | Plant response rating, Surinam Grass [11, 13]: 98 | Plant response rating, Surinam Grass [11, 14]: 100 | Plant response rating, Surinam Grass [11, 15]: 100 | Plant response rating, Surinam Grass [11, 20]: 60 | Plant response rating, Surinam Grass ([11]; Preemergence, 62 g ai/ha, 0 to 100 scale, 0 no effect, 100 complete control): 95 | Surinam Grass plant response rating [11, 21]: 0 | Surinam Grass plant response rating [11, 22]: 20 | Oat, Wild plant response rating (wild oat (Avena fatua); [19]): 80 | Plant response rating, Oat, Wild (wild oat (Avena fatua); [13]): 90 | Plant response rating, Oat, Wild (wild oat (Avena fatua); [14]): 95 | Plant response rating, Oat, Wild (wild oat (Avena fatua); [15]): 98 | Plant response rating, Oat, Wild (wild oat (Avena fatua); [20]): 80 | Plant response rating, Oat, Wild (wild oat (Avena fatua); [18]): 85 | Oat, Wild plant response rating (wild oat (Avena fatua); [21]): 40 | Oat, Wild plant response rating (wild oat (Avena fatua); [22]): 65 | Cupgrass, Woolly plant response rating [12, 19]: 85 | Plant response rating, Cupgrass, Woolly [12, 13]: 100 | Plant response rating, Cupgrass, Woolly [12, 14]: 100 | Plant response rating, Cupgrass, Woolly [12, 15]: 100 | Plant response rating, Cupgrass, Woolly [12, 17]: 0 | Plant response rating, Cupgrass, Woolly [12, 18]: 0 | Cupgrass, Woolly plant response rating [12, 21]: 0 | Cupgrass, Woolly plant response rating [12, 22]: 0
